For one assay, the target named is T1, Menin-MLL (Homo sapiens, UniProt O00255).
T1 construct: His-Menin (M1-L615 end); purchased BIORTUS BP9210
T1 sequence (O00255 1-615 isoform O00255-1): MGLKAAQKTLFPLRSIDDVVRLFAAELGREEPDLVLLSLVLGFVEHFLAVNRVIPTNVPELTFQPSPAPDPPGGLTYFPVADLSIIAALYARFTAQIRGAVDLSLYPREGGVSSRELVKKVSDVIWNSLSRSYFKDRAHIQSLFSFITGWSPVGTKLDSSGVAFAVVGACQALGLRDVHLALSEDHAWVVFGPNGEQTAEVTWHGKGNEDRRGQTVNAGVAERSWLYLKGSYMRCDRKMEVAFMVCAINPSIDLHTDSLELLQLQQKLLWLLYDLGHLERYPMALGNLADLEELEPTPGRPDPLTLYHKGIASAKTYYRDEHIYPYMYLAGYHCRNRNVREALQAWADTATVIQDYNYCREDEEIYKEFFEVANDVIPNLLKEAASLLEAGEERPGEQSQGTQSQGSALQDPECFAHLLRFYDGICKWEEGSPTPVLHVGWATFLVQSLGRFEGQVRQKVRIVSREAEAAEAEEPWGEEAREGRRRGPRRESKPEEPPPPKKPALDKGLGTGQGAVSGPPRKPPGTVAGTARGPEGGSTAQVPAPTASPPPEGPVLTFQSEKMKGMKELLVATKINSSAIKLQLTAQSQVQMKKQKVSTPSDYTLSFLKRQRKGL
Nature of the assay: Inhibitory activity against Menin-MLL binding (fluorescence polarization). Conditions: Menin-MLL IC50, fluorescence polarization; 150 nM His-Menin, 15 nM FITC-MLL; 25°C for 60 min. An outline of the steps: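 Fluorescence polarization competition: compound and 150 nM His-tagged menin (residues M1-L615) sit 15 min at 25 °C in pH 7.5 HEPES buffer with NaCl, DTT and BSA; 15 nM FITC-labelled MLL peptide then binds for 60 min. IC50 fitted sigmoidally from mP values, duplicate wells.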
`CCN(C(=O)c1cc(F)ccc1-c1cc(C2CN(C(=O)[C@@H]3CCCN3)C2)cn2c(C)nc(Cl)c12)C(C)C` [Example 125] had an IC50 of 26.5 nM.
On to `CCN(C(=O)c1cc(F)ccc1-c1cc(C2CN(C(=O)[C@@H]3CCCCN3)C2)cn2c(C)nc(Cl)c12)C(C)C` [Example 126], for which the half-inhibitory concentration (IC50) was 19 nM.
Still for that read-out and setting: as for `CCN(C(=O)c1cc(F)ccc1-c1cc(C2CCN(C[C@H]3CC[C@H](NS(=O)(=O)CC)CC3)CC2)nn2c(C)ncc12)C(C)C` [Example 136, N-ethyl-5-fluoro-2-[7-methyl-2-(1-{[(1r,4r)-4-ethanesulfonamidocyclohexyl]methyl}piperidin-4-yl)imidazo[1,5-b]pyridazin-4-yl]-N-(isopropyl)benzamide], the figure is 129 nM.
Turning to `CCS(=O)(=O)N[C@H]1CC[C@H](CN2CC(c3cc(-c4ccc(F)cc4C(=O)N(CC(F)F)C(C)C)c4cnn(C)c4c3)C2)CC1` [Example 153, N-(2,2-difluoroethyl)-5-fluoro-2-[1-methyl-6-(1-{[(1r,4r)-4-ethanesulfonamidocyclohexyl]methyl}-azacyclobutan-3-yl)-1H-indazol-4-yl]-N-(isopropyl)benzamide], the 50% inhibitory concentration (IC50) came to 31 nM.
The same measure, in the same setting: as for `CCS(=O)(=O)N[C@H]1CC[C@H](CN2CCC(c3cc(-c4ccc(F)cc4C(=O)N(CC(F)F)C(C)C)c4cnc(C)cn34)CC2)CC1` [Example 154, N-(2,2-difluoroethyl)-5-fluoro-2-[3-methyl-6-(1-{[(1r,4r)-4-ethanesulfonamidocyclohexyl]methyl}piperidin-4-yl)pyrrolo[1,2-a]pyrazin-8-yl]-N-(isopropyl)benzamide], the figure is 166 nM.
The same measure, in the same setting: the value for `CCS(=O)(=O)N[C@H]1CC[C@H](CN2CC(c3cc(-c4ccc(F)cc4C(=O)N4CCOC[C@H]4C)c4cnn(C)c4c3)C2)CC1` [Example 159, N-[(1r,4r)-4-{[3-(4-{4-fluoro-2-[(3R)-3-methylmorpholin-4-carbonyl]phenyl}-1-methyl-1H-indazol-6-yl)azacyclobutan-1-yl]methyl}cyclohexyl]ethan-1-sulfonamide] was 69 nM; that for `CCS(=O)(=O)N[C@H]1CC[C@H](CN2CC(Cc3cc(-c4ccc(F)cc4C(=O)N(CC(F)F)C(C)C)c4cnn(C)c4c3)C2)CC1` [Example 161, N-(2,2-difluoroethyl)-5-fluoro-2-{1-methyl-6-[(1-{[(1r,4r)-4-ethanesulfonamidocyclohexyl]methyl}azacyclobutan-3-yl)methyl]-1H-indazol-4-yl}-N-(isopropyl)benzamide] was 33.5 nM.

The same assay, now with this note: fluorescence polarization; 150 nM His-Menin, 15 nM FITC-MLL; 25°C for 60 min; read-out: Menin-MLL IC50.
Turning to `C=C1CN[C@H](C(=O)N2CCN(c3cc(-c4ccc(F)cc4C(=O)N(CC)C(C)C)c4c(Cl)nc(C)n4c3)CC2)C1` [Example 117], the half-inhibitory concentration (IC50) is 21 nM.
On the same count and under the same terms, the value for `Cc1ncc2c(-c3ccc(F)cc3C(=O)N(CC(F)F)C(C)C)cc(N3CCN(C(=O)[C@@H]4CCCN4)CC3)cn12` [Example 119] was 41 nM; that for `CCN(C(=O)c1cc(F)ccc1-c1cc(N2CCN(C(=O)C3NCCc4ccccc43)CC2)cn2c(C)nc(Cl)c12)C(C)C` (centres unmarked) [Example 122] was 217 nM.
Take `CCN(C(=O)c1cc(F)ccc1-c1cc(N2CCN(C(=O)[C@@H]3CCCNC3)CC2)cn2c(C)ncc12)C(C)C` [Example 124]: the half-maximal inhibitory concentration (IC50) stood at 80.5 nM.
Regarding `CCN(C(=O)c1cc(F)ccc1-c1cc(N2CCN(C(=O)C3NCCC3c3ccccc3)CC2)cn2c(C)nc(Cl)c12)C(C)C` (centres unmarked) [Example 127], the IC50 is 73.5 nM.
The same measure, in the same setting: the value for `C=C1CN[C@H](C(=O)N2CC(c3cc(-c4ccc(F)cc4C(=O)N(CC)C(C)C)c4c(F)nc(C)n4c3)C2)C1` [Example 130] was 62 nM.
Regarding `CCS(=O)(=O)N[C@H]1CC[C@H](CN2CC(c3cc(-c4ccc(F)cc4C(=O)N4CCOC[C@@H]4C)c4cnc(C)n4c3)C2)CC1` [Example 135], the IC50 was found to be 102 nM.
Consider `Cc1ncc2c(-c3ccc(F)cc3C(=O)N(CC(F)F)C(C)C)cc(N3CCN(C(=O)[C@@H]4CCC(c5cccc(F)c5)N4)CC3)cn12` (stereo partly drawn) [Example 140, N-(2,2-difluoroethyl)-5-fluoro-2-(6-{4-[(2S)-5-(3-fluorophenyl)pyrrolidin-2-carbonyl]piperazin-1-yl}-3-methylimidazo[1,5-a]pyridin-8-yl)-N-(isopropyl)benzamide], for which the IC50 came to 161 nM.
The same measure, in the same setting: the value for `CCS(=O)(=O)NC1CCC(CN2CC(c3cc(-c4ccc(F)cc4C(=O)N(CC(F)F)C(C)C)c4cnccn34)C2)CC1` (centres unmarked) [Example 143, N-(2,2-difluoroethyl)-2-(6-{1-[(4-ethanesulfonamidocyclohexyl)methyl]azacyclobutan-3-yl}pyrrolo[1,2-a]pyrazin-8-yl)-5-fluoro-N-(isopropyl)benzamide] was 2.7 nM.
Same read-out and setting: as for `C=C1CN[C@H](C(=O)N2CCC(c3cc(-c4ccc(F)cc4C(=O)N(CC(F)F)C(C)C)c4cnc(C)n4c3)CC2)C1` [Example 144], the figure is 51 nM; as for `COCCN(C)CCCC(C(C)C)N1CC(c2cc(-c3ccc(F)cc3C(=O)N(CC(F)F)C(C)C)c3cnccn23)C1` (centres unmarked) [Example 147, N-(2,2-difluoroethyl)-5-fluoro-2-[6-(1-{6-[(2-methoxyethyl)(methyl)amino]-2-methylhexan-3-yl}azacyclobutan-3-yl)pyrrolo[1,2-a]pyrazin-8-yl]-N-(isopropyl)benzamide], 140 nM.
On to `CCS(=O)(=O)N[C@@H]1CC[C@@H](CN2CC(c3cc(-c4ccc(F)cc4C(=O)N(CC(F)F)C(C)C)c4cnn(C)c4c3)C2)OC1` [Example 152, N-(2,2-difluoroethyl)-2-[6-(1-{[(2S,5R)-5-ethanesulfonamidooxacyclohexan-2-yl]methyl}azacyclobutan-3-yl)-1-methyl-1H-indazol-4-yl]-5-fluoro-N-(isopropyl)benzamide], for which the IC50 was 74.5 nM.
On to `Cc1nc(F)c2c(-c3ccc(F)cc3C(=O)N(CC(F)F)C(C)C)cc(C3CN(C(=O)[C@@H]4C[C@@H](C)CCN4)C3)cn12` [Example 155], for which the concentration for half-maximal inhibition (IC50) is 23 nM.
In the case of `Cc1nc(F)c2c(-c3ccc(F)cc3C(=O)N(CC(F)F)C(C)C)cc(C3CN(C(=O)[C@H]4NCC[C@@H]4C)C3)cn12` [Example 156], the IC50 was 30 nM.
On the same count and under the same terms, as for `CC(C)N(CC(F)F)C(=O)c1cc(F)ccc1-c1cc(C2CCN(C[C@@H]3CC[C@@H](NC(=O)OC(C)(C)C)CO3)C2)cc2c1cnn2C` (some centres unmarked) [Example 158], the figure is 165 nM; as for `CCS(=O)(=O)N[C@H]1CC[C@H](CCN2CC(c3cc(-c4ccc(F)cc4C(=O)N4CCOC[C@H]4C)c4cnn(C)c4c3)C2)CC1` [Example 160], 62 nM; as for `CCS(=O)(=O)N[C@@H]1CC[C@@H](CN2CCC(c3cc(-c4ccc(F)cc4C(=O)N(CC(F)F)C(C)C)c4cnc(C)n4c3)C2)OC1` (stereo partly drawn) [Example 163, N-(2,2-difluoroethyl)-2-[6-(1-{[(2S,5R)-5-ethanesulfonamidooxacyclohexan-2-yl]methyl}pyrrolidin-3-yl)-3-methylimidazo[1,5-a]pyridin-8-yl]-5-fluoro-N-(isopropyl)benzamide], 38 nM.
Take `CCS(=O)(=O)N[C@@H]1CC[C@@H](CN2CC[C@@H](c3cc(-c4ccc(F)cc4C(=O)N(CC(F)F)C(C)C)c4cnc(C)n4c3)C2)OC1` [Example 163-1, N-(2,2-difluoroethyl)-2-{6-[(3S)-1-{[(2S,5R)-5-ethanesulfonamidooxacyclohexan-2-yl]methyl}pyrrolidin-3-yl]-3-methylimidazo[1,5-a]pyridin-8-yl}-5-fluoro-N-(isopropyl)benzamide]: the concentration for half-maximal inhibition (IC50) came out at 47 nM.
On the same count and under the same terms, the value for `CCS(=O)(=O)N[C@@H]1CC[C@@H](CN2CC[C@H](c3cc(-c4ccc(F)cc4C(=O)N(CC(F)F)C(C)C)c4cnc(C)n4c3)C2)OC1` [Example 163-2, N-(2,2-difluoroethyl)-2-{6-[(3R)-1-{[(2S,5R)-5-ethanesulfonamidooxacyclohexan-2-yl]methyl}pyrrolidin-3-yl]-3-methylimidazo[1,5-a]pyridin-8-yl}-5-fluoro-N-(isopropyl)benzamide] was 54 nM.
Regarding `CC(C)N(CC(F)F)C(=O)c1cc(F)ccc1-c1cc([C@@H]2CCN(CCN3CCC(NC(=O)OC(C)(C)C)CC3)C2)cc2c1cnn2C` [Example 166-1, N-(1-{2-[(3S)-3-(4-{2-[(2,2-difluoroethyl)(isopropyl)aminoformyl]-4-fluorophenyl}-1-methyl-1H-indazol-6-yl)pyrrolidin-1-yl]ethyl}piperidin-4-yl)tert-butyl carbamate], the concentration for half-maximal inhibition (IC50) turned out to be 231 nM.
On the same count and under the same terms, as for `CC(C)N(CC(F)F)C(=O)c1cc(F)ccc1-c1cc([C@H]2CCN(CCN3CCC(NC(=O)OC(C)(C)C)CC3)C2)cc2c1cnn2C` [Example 166-2, N-(1-{2-[(3R)-3-(4-{2-[(2,2-difluoroethyl)(isopropyl)aminoformyl]-4-fluorophenyl}-1-methyl-1H-indazol-6-yl)pyrrolidin-1-yl]ethyl}piperidin-4-yl)tert-butyl carbamate], the figure is 248 nM; as for `CCS(=O)(=O)N[C@H]1CC[C@H](CN2CC(c3cc(-c4ccc(F)cc4C(=O)N4CCC[C@H]4C)c4cnn(C)c4c3)C2)CC1` [Example 167], 57 nM.

What is called IC50 is the concentration needed to halve the response being measured.

Source of the values: patent EP4782453A1 (Beyang Therapeutics Co., Ltd., priority 2023, dated 2025).
